This is an account of results in US12018267B2, “Plants having increased tolerance to herbicides” (BASF SE, priority 2015, dated 2024).

Assay [1] concerns transgenic Arabidopsis plants with wildtype or mutated cellulose synthase sequences (SEQ ID NO: 1 or 3). Briefly: 48-well plate growth inhibition of transgenic T2 Arabidopsis, relative tolerance rates versus non-transgenic (Table E2-1). The format is in vivo, Arabidopsis thaliana. Particulars: growth inhibition evaluated seven to ten days after seeding. The source says: For transformation of Arabidopsis thaliana, wildtype or mutated cellulose synthase sequences encoding for one of the following protein sequences SEQ ID NO: 1 or 3, are cloned with standard cloning techniques as described in Sambrook et al. (Molecular cloning (2001) Cold Spring Harbor Laboratory Press) in a binary vector containing resistance marker gene cassette (AHAS) and mutated cellulose synthase sequence (marked as GOI) in between ubiquitin promoter (PcUbi) and nopaline synthase terminator (NOS) sequence. Binary plasmids are introduced to Agrobacterium tumefaciens for plant transformation. Arabidopsis thaliana are transformed with wildtype or mutated cellulose synthase sequences by floral dip method as described by McElver and Singh (WO 2008/124495). Transgenic Arabidopsis plants are subjected to TaqMan analysis for analysis of the number of integration loci.
Transgenic Arabidopsis thaliana plants (T2) are assayed for improved tolerance to azine herbicides like e. g. 6-cyclopentyl-N4-(2,3,4,5,6-pentafluorophenyl)-1,3,5-triazine-2,4-diamine in 48-well plates. Therefore, T2 seeds are surface sterilized by stirring for 5 min in ethanol+water (70+30 by volume), rinsing one time with ethanol+water (70+30 by volume) and two times with sterile, deionized water. The seeds are resuspended in 0.1% agar dissolved in water (w/v) Four to five seeds per well are plated on solid nutrient medium consisting of half-strength murashige skoog nutrient solution, pH 5.8 (Murashige and Skoog (1962) Physiologia Plantarum 15: 473-497). Compounds are dissolved in dimethylsulfoxid (DMSO) and added to the medium prior solidification (final DMSO concentration 0.1%). Multi well plates are incubated in a growth chamber at 22° C., 75% relative humidity and 110 μmol Phot*m^−2*s^−1 with 14:10 h light:dark photoperiod. Growth inhibition is evaluated seven to ten days after seeding in comparison to wild type plants. Tolerance factors are calculated based on IC50 values of growth inhibition of transformed versus non-transformed Arabidopsis plants.

Assay [2] has as its system At_CESA1_R292H (SEQ ID 1 - Variant R292H) M3 Arabidopsis plants. The assay can be described thus: Greenhouse pre-emergent treatment of M3 Arabidopsis seeds, phytotox (injury) rating, CESA1 R292H variant. Type of assay: in vivo, Arabidopsis thaliana. Particulars: 21 days after treatment. The source says: For selection of cellulose biosynthesis inhibitor resistant plants EMS mutagenized seed populations of Arabidopsis thaliana are used. EMS mutagenized seed populations are either bought from Lehle Seeds (1102 South Industrial Blvd. Suite D, Round Rock, Texas USA) or are generated as described elsewhere (Heim D R, et al. (1989) Plant Physiol. 90: 146-150). Causative mutations in CESA wildtype sequences (e.g. SEQ ID NO: 1 or 3) are identified as described by Scheible W R et al. (2001, Proc. Natl. Acad. of Sci. 98: 10079-10084), McCourt et. al. (WO2013/142968) or with the use of next generation sequencing methods as described by Austin R S, et al. (2011) Plant Journal 67: 715-725.
(§1) Additionally, M3 Arabidopsis seeds are tested for improved tolerance to CESA-inhibiting herbicides in greenhouse studies with azine compounds like e. g. N2-(4-chloro-3,5,6-trifluoro-2-pyridyl)-6-(1-fluorocyclopentyl)-1,3,5-triazine-2,4-diamine (Table E1-1, see also FIG. 3).

For assay [3], the system named is wildtype Arabidopsis thaliana. Briefly: Greenhouse pre-emergent treatment of M3 Arabidopsis seeds, phytotox (injury) rating, wildtype. Type of assay: in vivo. Particulars: 21 days after treatment. The method, then: as §1
Setting [4] is: Construct AtCesA1_G1031R, SEQ ID 1, variant G1031R.
The mark [5] stands for this setting: Construct AtCesA1_L1011A, SEQ ID 1, variant L1011A.
Setting [6] is: Construct AtCesA1_R292H, SEQ ID 1, variant R292H.
Where [7] appears, read: Construct AtCesA1_V297M, SEQ ID 1, variant V297M.
[8] abbreviates: Construct AtCesA1_wt, SEQ ID 1, no variant.
Where [9] appears, read: Construct AtCesA3_F1039L, SEQ ID 3, variant F1039L.
Where [10] appears, read: Construct AtCesA3_wt, SEQ ID 3, no variant.

Regarding `Nc1nc(Nc2nc(F)c(F)c(Cl)c2F)nc(C2(F)CCCC2)n1` [N2-(4-chloro-3,5,6-trifluoro-2-pyridyl)-6-(1-fluorocyclopentyl)-1,3,5-triazine-2,4-diamine], the “Relative tolerance rate of transgenic Arabidopsis plants as compared to non-transgenic (non-transgenic = 1.0)” value (“Relative tolerance rate … (non-transgenic = 1.0)” below) in assay [1] (setting [4]) worked out at 3; in assay [1] (setting [5]) it was 1; in assay [1] (setting [6]) it was 1; in assay [1] (setting [7]), 1; in assay [1] (setting [8]) it was 2; in assay [1] (setting [9]), 1. In assay [1] (setting [10]), the “Relative tolerance rate … (non-transgenic = 1.0)” value is 1. In addition, the phytotox value is 10 in assay [2] (At_CESA1_R292H event A, 0.5 g ai/ha); 10 in assay [2] (At_CESA1_R292H event A, 1 g ai/ha); 45 in assay [2] (At_CESA1_R292H event A, 2 g ai/ha); 94 in assay [2] (At_CESA1_R292H event A, 4 g ai/ha); 5 in assay [2] (At_CESA1_R292H event B, 0.5 g ai/ha); 0 in assay [2] (At_CESA1_R292H event B, 1 g ai/ha). The phytotox value came out at 17.5 in assay [2] (At_CESA1_R292H event B, 2 g ai/ha); 87.5 in assay [2] (At_CESA1_R292H event B, 4 g ai/ha); 60 in assay [3] (0.5 g ai/ha); 65 in assay [3] (1 g ai/ha); 98 in assay [3] (2 g ai/ha); 100 in assay [3] (4 g ai/ha).

In the case of `Cc1cccc(-n2nc(C(N)=O)nc2-c2ccccc2)c1`, the “Relative tolerance rate … (non-transgenic = 1.0)” value came to 13 in assay [1] (setting [4]); 31 in assay [1] (setting [6]); 5 in assay [1] (setting [7]); 3 in assay [1] (setting [8]); 4 in assay [1] (setting [10]).

With `NC(=O)c1nc(-c2ccccc2)n(-c2ccc(Cl)c(COCC(F)(F)C(F)(F)F)c2)n1` [1-[4-chloro-3-(2,2,3,3,3-pentafluoropropoxymethyl)phenyl]-5-phenyl-1,2,4-triazole-3-carboxamide, reference compound], the figures for the “Relative tolerance rate … (non-transgenic = 1.0)” value in assay [1] (setting [5]) and in assay [1] (setting [9]) were 7 and 3, respectively. Also, the phytotox value came to 7.5 in assay [2] (At_CESA1_R292H event A, 7.8 g ai/ha); 80 in assay [2] (At_CESA1_R292H event A, 31.25 g ai/ha); 100 in assay [2] (At_CESA1_R292H event A, 125 g ai/ha); 100 in assay [2] (At_CESA1_R292H event A, 250 g ai/ha); 25 in assay [2] (At_CESA1_R292H event B, 7.8 g ai/ha); 52.5 in assay [2] (At_CESA1_R292H event B, 31.25 g ai/ha). Also, the phytotox value in assay [2] (At_CESA1_R292H event B, 125 g ai/ha) is 100; in assay [2] (At_CESA1_R292H event B, 250 g ai/ha), 100; in assay [3] (7.8 g ai/ha) it was 12.5; in assay [3] (31.25 g ai/ha), 99; in assay [3] (125 g ai/ha), 100; in assay [3] (250 g ai/ha), 100.
